From patent US20230295200A1 (REGENTS OF THE UNIVERSITY OF MICHIGAN, priority 2022, published 2023)

molecular target: T1, STAT6 protein (Homo sapiens, UniProt P42226); experiment: Fluorescence polarization (FP) binding assay, STAT6; settings: FP competition, 5 nM fluorescein-labeled tracer, 200 nM protein, PBS pH7.4; read-out: Binding STAT6
T1 sequence (P42226 1-847): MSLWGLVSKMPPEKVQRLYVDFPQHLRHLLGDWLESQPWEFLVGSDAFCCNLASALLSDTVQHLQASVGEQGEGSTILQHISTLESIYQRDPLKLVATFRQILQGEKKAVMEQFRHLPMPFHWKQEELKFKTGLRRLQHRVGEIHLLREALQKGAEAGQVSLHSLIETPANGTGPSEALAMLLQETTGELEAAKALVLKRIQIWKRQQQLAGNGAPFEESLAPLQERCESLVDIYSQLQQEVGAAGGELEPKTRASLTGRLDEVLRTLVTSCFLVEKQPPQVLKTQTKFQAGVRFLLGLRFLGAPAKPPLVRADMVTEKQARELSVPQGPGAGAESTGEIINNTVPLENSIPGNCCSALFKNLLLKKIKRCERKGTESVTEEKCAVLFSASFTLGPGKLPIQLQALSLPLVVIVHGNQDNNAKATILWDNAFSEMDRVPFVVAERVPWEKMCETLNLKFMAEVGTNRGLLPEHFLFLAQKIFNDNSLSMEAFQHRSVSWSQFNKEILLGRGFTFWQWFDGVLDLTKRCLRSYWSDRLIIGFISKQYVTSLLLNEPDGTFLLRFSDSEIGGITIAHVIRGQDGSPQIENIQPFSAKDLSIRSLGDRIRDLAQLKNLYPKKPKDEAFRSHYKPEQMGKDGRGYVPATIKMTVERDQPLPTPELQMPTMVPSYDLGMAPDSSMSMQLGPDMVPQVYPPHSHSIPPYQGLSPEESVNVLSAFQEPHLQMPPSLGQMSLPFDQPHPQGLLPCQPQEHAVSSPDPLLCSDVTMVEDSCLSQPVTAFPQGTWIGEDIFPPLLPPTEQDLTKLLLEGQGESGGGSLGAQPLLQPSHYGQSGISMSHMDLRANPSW
Method: Evaluation of the activity of the inhibitors may be accomplished by fluorescence polarization (FP) experiments. A representative general protocol is the following:
Fluorescence polarization (FP) experiments are performed in black round-bottom plates using the CLARIOstar microplate reader. To each well, fluorescein-labeled tracer and STAT5 or STAT6 protein are added in assay buffer. […] The inhibition constants are determined as the concentration of the STAT5 or STAT6 at which 50% of the ligand is bound.
Fluorescence polarization (FP) experiments were performed in 96-well, black round-bottom plates (Microfluor 2, Fisher Scientific) using the CLARIOstar microplate reader (BMG Labtech). To each well, 5 nM of fluoresceinlabeled tracer and 200 nM of STAT5 and/or STAT6 protein were added to a final volume of 100 μl in the assay buffer (PBS pH7.4+0.01% BGG+0.01% Tween-20, 2 mM DTT). The plate was mixed on a shaker for 15 m and incubated at room temperature for 1 h to reach equilibrium. […] All experimental data were analyzed using Prism 8.0 software (GraphPad Software), and the inhibition constants were determined by nonlinear curve fitting as the concentration of the STAT5 and/or STAT6 at which 50% of the ligand is bound.

SMILES | Ki [nM]
CC(C)(C)[C@H](NC(=O)c1cc2cc(C(F)(F)P(=O)(O)O)ccc2s1)C(=O)N1Cc2ccccc2C[C@H]1C(=O)N1CCOC(c2ccc(F)c(F)c2)C1 (stereo partly drawn) [Compound 238, ((2-(((2S)-1-((3S)-3-(2-(3,4-difluorophenyl)morpholine-4-carbonyl)-3,4-dihydroisoquinolin-2(1H)-yl)-3,3-dimethyl-1-oxobutan-2-yl)carbamoyl)benzo[b]thiophen-5-yl)difluoromethyl)phosphonic acid] | 100 to 1000
CC(C)(C)[C@H](NC(=O)c1cc2cc(C(F)(F)P(=O)(O)O)ccc2s1)C(=O)N1Cc2ccccc2C[C@H]1C(=O)N1CCOC(c2ccc(F)c(Cl)c2)C1 (stereo partly drawn) [Compound 239, ((2-(((2S)-1-((3S)-3-(2-(3-chloro-4-fluorophenyl)morpholine-4-carbonyl)-3,4-dihydroisoquinolin-2(1H)-yl)-3,3-dimethyl-1-oxobutan-2-yl)carbamoyl)benzo[b]thiophen-5-yl)difluoromethyl)phosphonic acid] | 1000 to 10000
CC(C)(C)[C@H](NC(=O)c1cc2cc(C(F)(F)P(=O)(O)O)ccc2s1)C(=O)N1Cc2ccccc2C[C@H]1C(=O)N1CCOC(c2ccc(Cl)c(Cl)c2)C1 (stereo partly drawn) [Compound 240, ((2-(((2S)-1-((3S)-3-(2-(3,4-dichlorophenyl)morpholine-4-carbonyl)-3,4-dihydroisoquinolin-2(1H)-yl)-3,3-dimethyl-1-oxobutan-2-yl)carbamoyl)benzo[b]thiophen-5-yl)difluoromethyl)phosphonic acid] | 100 to 1000
Cc1cc(C2CN(C(=O)[C@@H]3Cc4ccccc4CN3C(=O)[C@@H](NC(=O)c3cc4cc(C(F)(F)P(=O)(O)O)ccc4s3)C(C)(C)C)CCO2)ccc1F (stereo partly drawn) [Compound 241, (difluoro(2-(((2S)-1-((3S)-3-(2-(4-fluoro-3-methylphenyl)morpholine-4-carbonyl)-3,4-dihydroisoquinolin-2(1H)-yl)-3,3-dimethyl-1-oxobutan-2-yl)carbamoyl)benzo[b]thiophen-5-yl)methyl)phosphonic acid] | 1000 to 10000
CC(C)(C)[C@H](NC(=O)c1cc2cc(C(F)(F)P(=O)(O)O)ccc2s1)C(=O)N1Cc2ccccc2C[C@H]1C(=O)N1CCOC(c2cc(Cl)cc(Cl)c2)C1 (stereo partly drawn) [Compound 242, ((2-(((2S)-1-((3S)-3-(2-(3,5-dichlorophenyl)morpholine-4-carbonyl)-3,4-dihydroisoquinolin-2(1H)-yl)-3,3-dimethyl-1-oxobutan-2-yl)carbamoyl)benzo[b]thiophen-5-yl)difluoromethyl)phosphonic acid] | 100 to 1000
CC(C)(C)[C@H](NC(=O)c1cc2cc(C(F)(F)P(=O)(O)O)ccc2s1)C(=O)N1Cc2ccccc2C[C@H]1C(=O)N1CCOC(c2cc(F)c(Cl)cc2Cl)C1 (stereo partly drawn) [Compound 243, ((2-(((2S)-1-((3S)-3-(2-(2,4-dichloro-5-fluorophenyl)morpholine-4-carbonyl)-3,4-dihydroisoquinolin-2(1H)-yl)-3,3-dimethyl-1-oxobutan-2-yl)carbamoyl)benzo[b]thiophen-5-yl)difluoromethyl)phosphonic acid] | 100 to 1000
CC(C)(C)[C@H](NC(=O)c1cc2cc(C(F)(F)P(=O)(O)O)ccc2s1)C(=O)N1Cc2ccccc2C[C@H]1C(=O)N1CCCCC(c2ccccc2)C1 (stereo partly drawn) [Compound 244, ((2-(((2S)-3,3-dimethyl-1-oxo-1-((3S)-3-(3-phenylazepane-1-carbonyl)-3,4-dihydroisoquinolin-2(1H)-yl)butan-2-yl)carbamoyl)benzo[b]thiophen-5-yl)difluoromethyl)phosphonic acid] | 1000 to 10000
CC(C)(C)[C@H](NC(=O)c1cc2cc(C(F)(F)P(=O)(O)O)ccc2s1)C(=O)N1Cc2ccccc2C[C@H]1C(=O)N1CCCC(c2cccc(F)c2)C1 (stereo partly drawn) [Compound 245, (difluoro(2-(((2S)-1-((3S)-3-(3-(3-fluorophenyl)piperidine-1-carbonyl)-3,4-dihydroisoquinolin-2(1H)-yl)-3,3-dimethyl-1-oxobutan-2-yl)carbamoyl)benzo[b]thiophen-5-yl)methyl)phosphonic acid] | 100 to 1000
CC(C)(C)[C@H](NC(=O)c1cc2cc(C(F)(F)P(=O)(O)O)ccc2s1)C(=O)N1Cc2ccccc2C[C@H]1C(=O)N1CCCC(c2ccc(Cl)cc2)C1 (stereo partly drawn) [Compound 246, ((2-(((2S)-1-((3S)-3-(3-(4-chlorophenyl)piperidine-1-carbonyl)-3,4-dihydroisoquinolin-2(1H)-yl)-3,3-dimethyl-1-oxobutan-2-yl)carbamoyl)benzo[b]thiophen-5-yl)difluoromethyl)phosphonic acid] | 100 to 1000
CC(C)(C)[C@H](NC(=O)c1cc2cc(C(F)(F)P(=O)(O)O)ccc2s1)C(=O)N1CCC[C@H]1C(=O)N1CCOC(c2cc(F)cc(F)c2)C1 (stereo partly drawn) [Compound 265, ((2-(((2S)-1-((2S)-2-(2-(3,5-difluorophenyl)morpholine-4-carbonyl)pyrrolidin-1-yl)-3,3-dimethyl-1-oxobutan-2-yl)carbamoyl)benzo[b]thiophen-5-yl)difluoromethyl)phosphonic acid] | 100 to 1000
CC(C)(C)[C@H](NC(=O)c1cc2cc(C(F)(F)P(=O)(O)O)ccc2s1)C(=O)N1CCC[C@H]1C(=O)N1CC(C(=O)O)CC(c2ccccc2)C1 (stereo partly drawn) [Compound 266, 1-(((S)-2-(5-(difluoro(phosphono)methyl)benzo [b]thiophene-2-carboxamido)-3,3-dimethylbutanoyl)-L-prolyl)-5-phenylpiperidine-3-carboxylic acid] | 1000 to 10000
O=C(N[C@H](C(=O)N1CCC[C@H]1C(=O)N1CCO[C@H](c2ccccc2)C1)C1CCNCC1)c1cc2cc(C(F)(F)P(=O)(O)O)ccc2s1 [Compound 269, (difluoro(2-(((S)-2-oxo-2-((S)-2-((R)-2-phenylmorpholine-4-carbonyl)pyrrolidin-1-yl)-1-(piperidin-4-yl)ethyl)carbamoyl)benzo[b]thiophen-5-yl)methyl)phosphonic acid] | 100 to 1000
O=C(N[C@@H](Cc1ccncc1)C(=O)N1CCC[C@H]1C(=O)N1CCO[C@H](c2ccccc2)C1)c1cc2cc(C(F)(F)P(=O)(O)O)ccc2s1 [Compound 270, (difluoro(2-(((S)-1-oxo-1-((S)-2-((R)-2-phenylmorpholine-4-carbonyl)pyrrolidin-1-yl)-3-(pyridin-4-yl)propan-2-yl)carbamoyl)benzo[b]thiophen-5-yl)methyl)phosphonic acid] | 100 to 1000
O=C(N[C@@H](Cc1cccnc1)C(=O)N1CCC[C@H]1C(=O)N1CCO[C@H](c2ccccc2)C1)c1cc2cc(C(F)(F)P(=O)(O)O)ccc2s1 [Compound 271, (difluoro(2-(((S)-1-oxo-1-((S)-2-((R)-2-phenylmorpholine-4-carbonyl)pyrrolidin-1-yl)-3-(pyridin-3-yl)propan-2-yl)carbamoyl)benzo[b]thiophen-5-yl)methyl)phosphonic acid] | 100 to 1000
CCCC[C@H](NC(=O)c1cc2cc(C(F)(F)P(=O)(O)O)ccc2s1)C(=O)N1CCC[C@H]1C(=O)N1CCO[C@H](c2ccccc2)C1 [Compound 272, (difluoro(2-(((S)-1-oxo-1-((S)-2-((R)-2-phenylmorpholine-4-carbonyl)pyrrolidin-1-yl)hexan-2-yl)carbamoyl)benzo[b]thiophen-5-yl)methyl)phosphonic acid] | 100 to 1000
O=C(N[C@@H](Cc1ccc(Br)cc1)C(=O)N1CCC[C@H]1C(=O)N1CCO[C@H](c2ccccc2)C1)c1cc2cc(C(F)(F)P(=O)(O)O)ccc2s1 [Compound 273, ((2-(((S)-3-(4-bromophenyl)-1-oxo-1-((S)-2-((R)-2-phenylmorpholine-4-carbonyl)pyrrolidin-1-yl)propan-2-yl)carbamoyl)benzo[b]thiophen-5-yl)difluoromethyl)phosphonic acid] | 100 to 1000
CN(C)CCC[C@H](NC(=O)c1cc2cc(C(F)(F)P(=O)(O)O)ccc2s1)C(=O)N1CCC[C@H]1C(=O)N1CCO[C@H](c2ccccc2)C1 [Compound 274, ((2-(((S)-5-(dimethylamino)-1-oxo-1-((S)-2-((R)-2-phenylmorpholine-4-carbonyl)pyrrolidin-1-yl)pentan-2-yl)carbamoyl)benzo[b]thiophen-5-yl)difluoromethyl)phosphonic acid] | 100 to 1000
